Patent publication US20240279319A1, “ANTIBODY FOR IDENTIFYING PHOSPHORYLATION-SPECIFIC REACTIONS OF THREONINE AT POSITION 1010 OF NCAPG2, AND USE THEREOF” (NATIONAL CANCER CENTER, priority 2021, published 2024)

Test system: NCAPG2 pT1010
Assay: NCAPG2 pT1010-specific antibody reactivity after phosphorylase inhibitor treatment of nocodazole-treated breast cancer cells
Assay type: cell-based, human
Settings: MBAMB 231 treated with nocodazole, then inhibitor for 2 hours; FIG. 1B, 1C
Procedure: In addition, to confirm a phosphorylase inducing phosphorylation, after treating a breast cancer cell line MBAMB 231 with nocodazole, which is a mitosis-inducing reagent, and then with inhibitors of phosphorylases regulating mitosis for 2 hours, the reactivity of the NCAPG2 pT1010-specific antibody was confirmed.

SMILES | NCAPG2 pT1010 phosphospecific bands after kinase inhibition
O=C1NC(=NCc2cccs2)S/C1=C\c1ccc2ncccc2c1 [RO3306] | phosphospecific bands disappear
c1nc2nc(Nc3ccc(N4CCOCC4)cc3)nc(NC3CCCCC3)c2[nH]1 [reversine] | phosphospecific bands disappear
